Where a name gives a salt, the structure may show the parent alone.
Assays:
DDR1 = DDR1 (Homo sapiens, UniProt Q08345); assay: DDR1 binding assay (LanthaScreen Europium Kinase Binding assay); parameters: purchased Carna Biosciences; conditions: 5 nM DDR1, 20 nM Kinase Tracer 178, 1 hour at room temperature; Ki from IC50 by Cheng-Prusoff
Procedure: (§1) DDR1 and DDR2 binding assays were performed using Life Technologies LanthaScreen™ Europium Kinase Binding assay. The compounds were incubated with 5 nM DDR1 (Carna Biosciences) or 5 nM DDR2 (Life Technologies) for 1 hour at room temperature in white 384-well OptiPlate (PerkinElmer), containing 20 nM or 10 nM Kinase Tracer 178 respectively and 2 nM Europium labelled anti-GST antibody (Life Technologies) in assay buffer (50 mM HEPES pH 7.5, 10 mM MgCl2, 1 mM EGTA and 0.01% BRIJ35).
(§2) The ratio of fluorescence emission 665 nm/615 nm after excitation at 340 nm was obtained using the Tecan Spark 20M plate reader. IC50 values were determined in GraphPad Prism 7.0 software, using 4 parameter model: log(inhibitor) vs. response. IC50 values were converted in Ki using the Cheng-Prusoff equation (Ki=IC50/(1+[Tracer]/Kd).

DDR2 = target: T1, DDR2 (Homo sapiens, UniProt Q16832); assay: DDR2 binding assay (LanthaScreen Europium Kinase Binding assay); parameters: purchased Life Technologies; conditions: 5 nM DDR2, 10 nM Kinase Tracer 178, 1 hour at room temperature; Ki from IC50 by Cheng-Prusoff
T1 sequence (Q16832 22-855): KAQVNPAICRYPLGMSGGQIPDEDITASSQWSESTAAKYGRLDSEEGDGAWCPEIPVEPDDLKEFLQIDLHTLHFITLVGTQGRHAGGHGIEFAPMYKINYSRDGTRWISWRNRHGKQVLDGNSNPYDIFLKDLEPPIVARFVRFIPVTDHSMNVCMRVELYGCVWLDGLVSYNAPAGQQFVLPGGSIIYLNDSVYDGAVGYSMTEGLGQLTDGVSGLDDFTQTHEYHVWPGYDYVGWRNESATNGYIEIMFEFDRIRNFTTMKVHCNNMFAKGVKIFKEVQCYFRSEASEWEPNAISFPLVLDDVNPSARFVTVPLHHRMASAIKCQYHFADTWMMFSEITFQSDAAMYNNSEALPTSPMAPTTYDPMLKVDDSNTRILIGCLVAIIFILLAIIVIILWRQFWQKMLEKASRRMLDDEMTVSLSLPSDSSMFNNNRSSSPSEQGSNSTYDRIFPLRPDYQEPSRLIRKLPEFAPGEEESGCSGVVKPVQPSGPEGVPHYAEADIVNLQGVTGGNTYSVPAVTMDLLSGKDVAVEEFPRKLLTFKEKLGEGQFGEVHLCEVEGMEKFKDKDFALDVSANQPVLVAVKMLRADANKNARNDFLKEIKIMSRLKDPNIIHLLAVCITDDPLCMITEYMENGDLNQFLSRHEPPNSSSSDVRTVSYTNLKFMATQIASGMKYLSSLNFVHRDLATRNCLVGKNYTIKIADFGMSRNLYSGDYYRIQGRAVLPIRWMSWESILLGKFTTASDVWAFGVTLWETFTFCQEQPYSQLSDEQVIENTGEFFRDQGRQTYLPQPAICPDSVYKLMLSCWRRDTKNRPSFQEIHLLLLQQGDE
Procedure: as §1, §2

Sequence of DDR1 (Q08345 19-913): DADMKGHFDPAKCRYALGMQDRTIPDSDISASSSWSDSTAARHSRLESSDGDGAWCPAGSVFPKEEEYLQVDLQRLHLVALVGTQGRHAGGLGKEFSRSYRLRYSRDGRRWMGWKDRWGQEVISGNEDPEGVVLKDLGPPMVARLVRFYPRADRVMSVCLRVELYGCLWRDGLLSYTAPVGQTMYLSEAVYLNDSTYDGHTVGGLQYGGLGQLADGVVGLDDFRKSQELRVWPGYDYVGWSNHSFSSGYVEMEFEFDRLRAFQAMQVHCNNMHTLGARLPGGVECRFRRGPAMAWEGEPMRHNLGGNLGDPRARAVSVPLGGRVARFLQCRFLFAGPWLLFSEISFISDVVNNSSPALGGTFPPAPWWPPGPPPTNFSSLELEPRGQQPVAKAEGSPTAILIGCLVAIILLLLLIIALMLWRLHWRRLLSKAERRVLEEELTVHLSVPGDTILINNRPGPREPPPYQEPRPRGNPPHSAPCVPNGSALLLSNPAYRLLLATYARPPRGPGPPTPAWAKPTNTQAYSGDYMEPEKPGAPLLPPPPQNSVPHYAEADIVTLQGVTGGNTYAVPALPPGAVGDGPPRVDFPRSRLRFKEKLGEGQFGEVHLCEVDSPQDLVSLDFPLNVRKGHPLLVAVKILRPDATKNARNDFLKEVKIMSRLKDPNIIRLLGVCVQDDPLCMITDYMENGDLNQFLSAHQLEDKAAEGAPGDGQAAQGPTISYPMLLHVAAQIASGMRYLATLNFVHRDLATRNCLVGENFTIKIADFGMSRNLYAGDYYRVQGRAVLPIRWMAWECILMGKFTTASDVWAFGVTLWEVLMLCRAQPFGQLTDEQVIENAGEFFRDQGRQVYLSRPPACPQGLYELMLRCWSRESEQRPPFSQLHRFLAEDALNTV

Row | SMILES | Ki (DDR1) [µM] | Ki (DDR2) [µM]
1 | CNC(=O)c1cc(NCc2cc(NC(=O)c3cc(CN4CCN(C)CC4)cc(C(F)(F)F)c3)ccc2C)ccn1 [Example 10, N-methyl-4-((2-methyl-5-(3-((4-methylpiperazin-1-yl)methyl)-5-(trifluoromethyl)benzamido)benzyl)amino)picolinamide] | < 0.03 | 0.03 to 0.3
2 | Cc1ccc(NC(=O)c2cc(CN3CCN(C)CC3)cc(C(F)(F)F)c2)cc1CNCc1cncnc1 [Example 11, N-(4-methyl-3-(((pyrimidin-5-ylmethyl)amino)methyl)phenyl)-3-((4-methylpiperazin-1-yl)methyl)-5-(trifluoromethyl)benzamide] | 0.3 to 1 | 0.3 to 1
3 | CC(C)c1ccc(C(=O)Nc2cc(CN3CCN(C)CC3)cc(C(F)(F)F)c2)cc1CNc1cncnc1 [Example 30, 4-isopropyl-N-(3-((4-methylpiperazin-1-yl)methyl)-5-(trifluoromethyl)phenyl)-3-((pyrimidin-5-ylamino)methyl)benzamide] | < 0.03 | < 0.03
4 | CNC(=O)c1cc(CNCc2cc(NC(=O)c3cc(CN4CCN(C)CC4)cc(C(F)(F)F)c3)ccc2C)ccn1 [Example 14, N-methyl-4-(((2-methyl-5-(3-((4-methylpiperazin-1-yl)methyl)-5-(trifluoromethyl)benzamido)benzyl)amino)methyl)picolinamide] | 0.03 to 0.3 | 0.03 to 0.3
5 | CCCc1ccc(C(=O)Nc2cc(CN3CCN(C)CC3)cc(C(F)(F)F)c2)cc1CNc1cncnc1 [Example 29, N-(3-((4-methylpiperazin-1-yl)methyl)-5-(trifluoromethyl)phenyl)-4-propyl-3-((pyrimidin-5-ylamino)methyl)benzamide] | < 0.03 | 0.03 to 0.3
6 | Cc1ccc(NC(=O)c2cc(CN3CCN(C)CC3)cc(C(F)(F)F)c2)cc1CN(Cc1cnc2ccccn12)Cc1cnc2ccccn12 [Example 12, N-(3-((bis(imidazo[1,2-a]pyridin-3-ylmethyl)amino)methyl)-4-methylphenyl)-3-((4-methylpiperazin-1-yl)methyl)-5-(trifluoromethyl)benzamide] | < 0.03 | 0.03 to 0.3
7 | Cc1ccc(NC(=O)c2cc(CN3CCN(C)CC3)cc(C(F)(F)F)c2)cc1CNCc1cnc2ccccn12 [Example 13, N-(3-(((imidazo[1,2-a]pyridin-3-ylmethyl)amino)methyl)-4-methylphenyl)-3-((4-methylpiperazin-1-yl)methyl)-5-(trifluoromethyl)benzamide] | < 0.03 | < 0.03
8 | CCCc1ccc(C(=O)Nc2cc(CN3CCN(C)CC3)cc(C(F)(F)F)c2)cc1CNC(=O)c1cnc2ccccn12 [Example 28, N-(5-((3-((4-methylpiperazin-1-yl)methyl)-5-(trifluoromethyl)phenyl)carbamoyl)-2-propylbenzyl)imidazo[1,2-a]pyridine-3-carboxamide formate salt] | 0.3 to 1 | 0.3 to 1

Further lines, results first:

Row | Ki (DDR1) [µM] | Ki (DDR2) [µM] | SMILES
9 | 0.03 to 0.3 | 0.03 to 0.3 | Cc1cn(-c2cc(NC(=O)c3ccc(C)c(CNc4ccc5[nH]ncc5c4)c3)cc(C(F)(F)F)c2)cn1 [Example 4, 3-(((1H-indazol-5-yl)amino)methyl)-4-methyl-N-(3-(4-methyl-1H-imidazol-1-yl)-5-(trifluoromethyl)phenyl)benzamide]
10 | 0.3 to 1 | 0.3 to 1 | Cc1cn(-c2cc(NC(=O)c3ccc(C)c(CNC4CNc5ccnn5C4)c3)cc(C(F)(F)F)c2)cn1 (stereo not shown) [Example 6, 4-methyl-N-(3-(4-methyl-1H-imidazol-1-yl)-5-(trifluoromethyl)phenyl)-3-(((4,5,6,7-tetrahydropyrazolo[1,5-a]pyrimidin-6-yl)amino)methyl)benzamide]
11 | < 0.03 | < 0.03 | Cc1ccc(NC(=O)c2cc(CN3CCN(C)CC3)cc(C(F)(F)F)c2)cc1CNc1cncnc1 [Example 9, N-(4-methyl-3-((pyrimidin-5-ylamino)methyl)phenyl)-3-((4-methylpiperazin-1-yl)methyl)-5-(trifluoromethyl)benzamide]
12 | < 0.03 | < 0.03 | Cc1cn(-c2cc(NC(=O)c3ccc(C)c(CNC(=O)c4cnc5ccccn45)c3)cc(C(F)(F)F)c2)cn1 [Example 22, N-(2-methyl-5-((3-(4-methyl-1H-imidazol-1-yl)-5-(trifluoromethyl)phenyl)carbamoyl)benzyl)imidazo[1,2-a]pyridine-3-carboxamide]
13 | < 0.03 | < 0.03 | CNC(=O)c1cc(NCc2cc(C(=O)Nc3cc(-n4cnc(C)c4)cc(C(F)(F)F)c3)ccc2C)ccn1 [Example 23, N-methyl-4-((2-methyl-5-((3-(4-methyl-1H-imidazol-1-yl)-5-(trifluoromethyl)phenyl)carbamoyl)benzyl)amino)picolinamide]
14 | 0.03 to 0.3 | 0.03 to 0.3 | Cc1cn(-c2cc(NC(=O)c3ccc(C)c(CNc4ccc(C#N)cn4)c3)cc(C(F)(F)F)c2)cn1 [Example 8, 3-(((5-cyanopyridin-2-yl)amino)methyl)-4-methyl-N-(3-(4-methyl-1H-imidazol-1-yl)-5-(trifluoromethyl)phenyl)benzamide]
15 | < 0.03 | < 0.03 | Cc1cn(-c2cc(NC(=O)c3ccc(C)c(CNc4cnc5[nH]ccc5c4)c3)cc(C(F)(F)F)c2)cn1 [Example 5, 3-(((1H-pyrrolo[2,3-b]pyridin-5-yl)amino)methyl)-4-methyl-N-(3-(4-methyl-1H-imidazol-1-yl)-5-(trifluoromethyl)phenyl)benzamide]
16 | < 0.03 | < 0.03 | Cc1ccc(C(=O)Nc2cc(CN3CCN(C)CC3)cc(C(F)(F)F)c2)cc1CNc1cncnc1 [Example 19, 4-methyl-N-(3-((4-methylpiperazin-1-yl)methyl)-5-(trifluoromethyl)phenyl)-3-((pyrimidin-5-ylamino)methyl)benzamide]
17 | < 0.03 | 0.03 to 0.3 | Cc1ccc(C(=O)Nc2cc(CN3CCN(C)CC3)cc(C(F)(F)F)c2)cc1CNc1cnc2ccnn2c1 [Example 18, 4-methyl-N-(3-((4-methylpiperazin-1-yl)methyl)-5-(trifluoromethyl)phenyl)-3-((pyrazolo[1,5-a]pyrimidin-6-ylamino)methyl)benzamide]
18 | 0.03 to 0.3 | 0.03 to 0.3 | Cc1ccc(NC(=O)c2cc(CN3CCN(C)CC3)cc(C(F)(F)F)c2)cc1CNCc1cnc2[nH]ccc2c1 [Example 15, N-(3-((((1H-pyrrolo[2,3-b]pyridin-5-yl)methyl)amino)methyl)-4-methylphenyl)-3-((4-methylpiperazin-1-yl)methyl)-5-(trifluoromethyl)benzamide]
19 | < 0.03 | < 0.03 | Cc1ccc(C(=O)Nc2cc(CN3CCN(C)CC3)cc(C(F)(F)F)c2)cc1CNC(=O)c1cnc2[nH]ccc2c1 [Example 26, N-(2-methyl-5-((3-((4-methylpiperazin-1-yl)methyl)-5-(trifluoromethyl)phenyl)carbamoyl)benzyl)-1H-pyrrolo[2,3-b]pyridine-5-carboxamide]
20 | < 0.03 | < 0.03 | Cc1cn(-c2cc(NC(=O)c3ccc(C(F)F)c(CNc4cncnc4)c3)cc(C(F)(F)F)c2)cn1 [Example 36, 4-(difluoromethyl)-N-(3-(4-methyl-1H-imidazol-1-yl)-5-(trifluoromethyl)phenyl)-3-((pyrimidin-5-ylamino)methyl)benzamide]

Source: patent publication US20230227447A1, “BENZYLAMINE DERIVATIVES AS DDRS INHIBITORS” (CHIESI FARMACEUTICI S.P.A., priority 2020, published 2023)
